# “Also recorded” adds a separate entry of the source.
# Tests used:
# SD rats = assay: Long-term (7 d) diuretic activity in rats; assay type: in vivo, rat; conditions: for ALT / AST / Body weight / Brain index / Heart index / Kidney index / Liver index / Serum K / Serum Na / Serum creatinine / Serum urea / Spleen index / Testis index: n=6
# Procedure: In a single-dose administration experiment, male wild-type (WT) mice, UT-B^−/− mice, UT-A1^−/− mice, or SD rats were adapted in metabolic cages for 3 d. Food and water were provided ad libitum throughout the experiment. Prior to administration, the bladder of each animal was emptied through gentle abdominal massage, and urine was collected from the metabolic cages every 2 h. Compound E3, suspended in 0.5% CMC-Na at an appropriate concentration, was administered intragastric gavage to the mice or rats (0.16, 0.8, 4, or 20 mg/kg). Vehicle control comprised 0.5% (w/v) CMC-Na. Urinary parameters were determined through the following: volume: Gravimetric analysis (1 g/mL density assumption); osmolality: freezing-point osmometry (Micro-osmometer, Fisker Associates, Norwood, MA, USA); and urea: diacetyl oxime colorimetry (QuantiChrom® kit, Elabscience, Wuhan, China). In long-term (7 d) diuretic activity experiments, male WT mice, UT-B^−/− mice, UT-A1^−/− mice, and SD rats were acclimatized in metabolic cages (Ugo Basile, Comerio, VA, Italy) for 3 d. Food and water were provided ad libitum throughout the experiment. E3 was suspended in 0.5% CMC-Na and administered at a dose of 4 or 20 mg/kg by intragastric gavage. Urine was collected by metabolic cages every 24 h. Body weight was measured daily. At 4 h after the final administration, a blood sample was obtained by heart puncture. Inner medulla and outer medulla tissue homogenates were prepared, and the supernatant after centrifugation was analyzed for solute concentration and osmolality. Urinary osmolality and urea concentration were measured as above. Serum Na^+, K^+, and Cl^− were measured in a clinical chemistry laboratory, while serum creatinine, ALT, and AST were measured through specific reagent kits (NJJC Bio, Nanjing, China).
# Multiple tissues and organs were fixed with 4% paraformaldehyde and embedded in paraffin. Five μm paraffin sections were cut and stained with hematoxylin and eosin (H&E).
# Inner medulla tissues were homogenized in ice-cold RIPA buffer supplemented with protease/phosphatase inhibitors (Roche, Basel, Switzerland). Following centrifugation (12,000× g, 15 min, 4 °C), supernatants were subjected to BCA quantification (Thermo Scientific, Waltham, MA, USA). Protein lysates underwent SDS-PAGE separation and electrotransfer to PVDF membranes (Amersham Biosciences, Boston, MA, USA). After 2 h blocking with 5% skimmed milk, membranes were sequentially processed with: (1) TBST washes (20 mM Tris-HCl, 137 mM NaCl, 0.1% Tween-20, pH 7.4); (2) primary antibodies (UT-A1/A2/A3, UT-B, AQP2/3, β-actin; 4 °C, 12 h); and (3) HRP-conjugated secondary antibodies (anti-mouse/rabbit IgG; RT, 2 h). Chemiluminescent detection employed the ECL reagent (Meilunbio, Dalian, China) on a Syngene GeneGnome XRQ system, with band quantification via ImageJ (v1.53k).
# [1] = Tissue distribution study in rats; assay type: in vivo, rat
# Procedure: Male SD rats were randomly divided into four groups and received a single oral dose of E3 at 4 mg/kg. Blood and tissue samples (i.e., heart, liver, kidney, spleen, lung, brain, testis, skin, muscle, leg bone, stomach, small intestine, and colon) were collected at 0.5 h, 2 h, 6 h, and 24 h after dosing. Tissues were perfused with cold saline, blotted, weighed, and homogenized (10 vol/wt ice-cold H2O; T10 homogenizer, IKA, Staufen, Germany). The rats’ right shin bone was decalcified in methanol (4 °C, 12 h). Processed samples (−80 °C storage) underwent LC-MS/MS analysis as described.
# The analyte E3 and IS were dissolved in DMSO to generate the stock solutions. The working calibration of E3 was gradient-diluted with MeOH/H2O (1:1, v/v). Three microliters of working solutions were spiked with 27 μL of the blank rat plasma to establish the calibration standards. The final concentrations of the standard samples were 1, 2, 5, 10, 50, 250, 500, and 1000 ng/mL. Quality control samples (3/100/800 ng/mL) were prepared using identical protein precipitation protocols. Briefly, 30 μL calibrators and biological matrices were mixed with 450 μL stop solution, vortexed (5 min), and centrifuged (18,000× g, 10 min, 4 °C). Processed supernatants (2 μL injection volume) were subjected to LC-MS/MS analysis.
# The analysis was conducted by an Xevo TQ-S Cronos Triple Quadrupole Mass Spectrometer coupled with an ACQUITY UPLC (Waters Corp, Milford, MA, USA). The chromatographic separation was conducted in an ACQUITY UPLC BEH C18 1.7 µm column (Waters, Milford, MA, USA) at 40 °C with a flow rate of 0.4 mL/min. The mobile phases were 0.1% (v/v) formic acid in water (A) and pure ACN (B). […] An electrospray ionization (ESI) source with multiple–reaction monitoring (MRM) in positive–ion mode was employed to quantify the analytes with the transitions of m/z 385.11 > 244.19 and m/z 271.136 > 91.01 for E3 and IS, respectively. The optimized cone voltage is 10 V and 24 V for E3 and IS, respectively. The collision energy is 12 V and 32 V for E3 and IS, respectively. MassLynx v4.2 (Waters Corp, Milford, MA, USA) was used for data acquisition and analysis.
smiles,measurement,setting,value
"CC(=O)c1ccc(C(=O)Nc2cccc(NS(=O)(=O)c3ccccc3)c2)o1 [Compound E3, 5-acetyl-N-(3-(phenylsulfonamido)phenyl)furan-2-carboxamide]",urine output,"SD rats; 4 mg/kg and 20 mg/kg intragastric, 7 d",continuously increased
same,ALT,"SD rats; 4 mg/kg, 7 d",42.2±5.5 U/L
same,AST,"SD rats; 4 mg/kg, 7 d",113.0±10.6 U/L
same,Body weight,"SD rats; 4 mg/kg, 7 d",242.4 ± 2.3 g
same,Brain index,"SD rats; 4 mg/kg, 7 d",0.58±0.01%
same,Heart index,"SD rats; 4 mg/kg, 7 d",0.38±0.01%
same,Kidney index,"SD rats; 4 mg/kg, 7 d",0.78±0.03%
same,Liver index,"SD rats; 4 mg/kg, 7 d",3.98±0.08%
same,Serum K,"SD rats; 4 mg/kg, 7 d",5.16 ± 0.10 mM
same,Serum Na,"SD rats; 4 mg/kg, 7 d",140.7 ± 1.2 mM
same,Serum creatinine,"SD rats; 4 mg/kg, 7 d",33.6 ± 1.7 µM
same,Serum urea,"SD rats; 4 mg/kg, 7 d",7.15 ± 0.16 mM
same,Spleen index,"SD rats; 4 mg/kg, 7 d",0.30±0.02%
same,Testis index,"SD rats; 4 mg/kg, 7 d",0.88±0.06%
same,ALT,"SD rats; 20 mg/kg, 7 d",40.2±1.9 U/L
same,AST,"SD rats; 20 mg/kg, 7 d",112.9±4.5 U/L
same,Body weight,"SD rats; 20 mg/kg, 7 d",240.8 ± 4.1 g
same,Brain index,"SD rats; 20 mg/kg, 7 d",0.64±0.01%
same,Heart index,"SD rats; 20 mg/kg, 7 d",0.40±0.01%
same,Kidney index,"SD rats; 20 mg/kg, 7 d",0.73±0.03%
same,Liver index,"SD rats; 20 mg/kg, 7 d",3.99±0.06%
same,Serum K,"SD rats; 20 mg/kg, 7 d",4.98 ± 0.12 mM
same,Serum Na,"SD rats; 20 mg/kg, 7 d",141.3 ± 1.0 mM
same,Serum creatinine,"SD rats; 20 mg/kg, 7 d",34.1 ± 1.6 µM
same,Serum urea,"SD rats; 20 mg/kg, 7 d",7.18 ± 0.19 mM
same,Spleen index,"SD rats; 20 mg/kg, 7 d",0.29±0.01%
same,Testis index,"SD rats; 20 mg/kg, 7 d",0.94±0.02%
same,excretion of non-urea solutes,"SD rats; 4 and 20 mg/kg, 7 d",did not change
same,urine osmolality,"SD rats; 4 and 20 mg/kg, 7 d",significantly decreased
same,H&E staining of cortex and medulla of rat kidneys,"SD rats; 7 d, except dilatation of the collecting duct due to polyuria",did not induce morphological abnormalities
same,non-urea solutes in inner medullary tissue,"SD rats; 7 d, vs control",did not change
same,osmolality in inner medullary tissue,"SD rats; 7 d, vs control",significantly decreased
same,"outer medullary osmolality, urea concentration, and non-urea solute concentration","SD rats; 7 d, vs control",no differences
same,urea concentration in inner medullary tissue,"SD rats; 7 d, vs control",significantly decreased
same,"body weight, organ indexes, blood biochemical parameters (incl. serum Na+, K+, Cl−)","SD rats; after 7 d of treatment, vs control",no significant difference
same,permeability to the blood–brain barrier (BBB) and blood–testis barrier (BTB),[1]; inferred from tissue distribution,lower permeability; also recorded: low permeability
same,concentration in kidney relative to other tissues,[1]; single oral 4 mg/kg,highest concentration
same,"distribution in the brain, testis",[1]; single oral 4 mg/kg,relatively low distribution
same,time of peak drug concentration in most tissues,"[1]; single oral 4 mg/kg, post-administration",2 h

# Reference: paper PMC12024912, “Druggability Studies of Benzene Sulfonamide Substituted Diarylamide (E3) as a Novel Diuretic” (Biomedicines, 2025)
